According to article PMC9916969 (International Journal of Molecular Sciences, 2023):
Like-named read-outs stand apart in the source and are kept apart here.

Legend:
FRAP assay = settings: Trolox equivalents; 60 min, 37 °C; n.a. = not active
Method: The Ferric Reducing Antioxidant Power (FRAP) test involves reduction of the ferric 2,4,6-tripyridyl-s-triazine complex [Fe(TPTZ)2]^3+ to an intense-blue ferrous complex [Fe(TPTZ)2]^2+ [92], as previously reported. Results are given as Trolox Equivalents (TE).
The FRAP (ferric reducing antioxidant power) assay proposed by Benzie and Strain [92] was modified to be performed in 96-well microplates as described in detail in [53]. The FRAP reagent contained 2.5 mL of 10 mM TPTZ (2,4,6-tris(2-pyridyl)-s-triazine, Sigma-Aldrich) solution in 40 mM HCl, 2.5 mL of 20 mM FeCl3 (Sigma-Aldrich) in distilled water and 25 mL of 0.3 M acetate buffer (pH 3.6). Aliquots of 10 µL of the test compound dissolved in DMSO (0.5 mM) were placed in quadruplicate. Absorbance was measured at a wavelength of 593 nm after 60 min incubation at 37 °C. In each case, Trolox was used as a reference compound to obtain the standard curve. The AO activity was calculated with respect to the activity of Trolox and expressed as Trolox equivalents (TE)—the values calculated as the ratio of the concentrations of Trolox and the test compound resulting in the same effect on ferric reducing activity.

equine serum BChE = biological target: T1, equine serum BChE (Equus caballus, UniProt P81908); test: biochemical; settings: mean ± SEM, n = 3, read-out: Inhibitory activity against BChE, IC50
T1 construct: human erythrocyte AChE, equine serum BChE, and porcine liver CES were used; purchased Sigma-Aldrich; host or cells: equine serum (tissue-derived)
T1 sequence (P81908 whole entry): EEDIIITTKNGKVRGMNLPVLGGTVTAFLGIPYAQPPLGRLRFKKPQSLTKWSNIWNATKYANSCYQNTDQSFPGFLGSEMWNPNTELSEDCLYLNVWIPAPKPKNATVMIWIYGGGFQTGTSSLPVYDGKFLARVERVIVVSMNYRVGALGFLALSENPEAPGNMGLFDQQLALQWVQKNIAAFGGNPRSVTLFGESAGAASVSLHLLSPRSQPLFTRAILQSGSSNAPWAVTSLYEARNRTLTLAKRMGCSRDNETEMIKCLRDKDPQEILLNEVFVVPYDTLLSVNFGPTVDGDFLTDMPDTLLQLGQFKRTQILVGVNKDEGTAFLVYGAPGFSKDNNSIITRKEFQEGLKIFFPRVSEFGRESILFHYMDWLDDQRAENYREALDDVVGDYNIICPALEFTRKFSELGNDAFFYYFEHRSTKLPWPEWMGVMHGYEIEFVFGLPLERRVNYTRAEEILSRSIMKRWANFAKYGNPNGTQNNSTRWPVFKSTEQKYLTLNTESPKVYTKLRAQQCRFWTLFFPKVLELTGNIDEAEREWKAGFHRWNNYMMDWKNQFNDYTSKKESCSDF
Source text: (§1) Assessment of the esterase profile of new potential anti-AD molecules enables the estimation of both the primary pharmacological effects of the tested compounds—their inhibition of AChE and BChE—and their possible unwanted side effect—inhibition of CES, which hydrolyzes numerous ester-containing drugs. For the esterase profile evaluation, human erythrocyte AChE, equine serum BChE, and porcine liver CES were used. These sources of BChE and CES were employed because of their relatively low cost, high sequence identity to human enzymes, and the exploratory character of this work.
(§2) Chromophore absorbances were measured with a FLUOStar Optima microplate reader (BMG Labtech, Ortenberg, Germany). […] Initially, we used a single concentration of 20 µM for all compounds.

human erythrocyte AChE = biological target: T2, human erythrocyte AChE (Homo sapiens, UniProt P22303); test: biochemical; settings: mean ± SEM, n = 3, read-out: Inhibitory activity against AChE, IC50
T2 construct: human erythrocyte AChE, equine serum BChE, and porcine liver CES were used; purchased Sigma-Aldrich; host or cells: human erythrocytes (tissue-derived)
T2 sequence (P22303 32-617 isoform P22303-2 limits assumed): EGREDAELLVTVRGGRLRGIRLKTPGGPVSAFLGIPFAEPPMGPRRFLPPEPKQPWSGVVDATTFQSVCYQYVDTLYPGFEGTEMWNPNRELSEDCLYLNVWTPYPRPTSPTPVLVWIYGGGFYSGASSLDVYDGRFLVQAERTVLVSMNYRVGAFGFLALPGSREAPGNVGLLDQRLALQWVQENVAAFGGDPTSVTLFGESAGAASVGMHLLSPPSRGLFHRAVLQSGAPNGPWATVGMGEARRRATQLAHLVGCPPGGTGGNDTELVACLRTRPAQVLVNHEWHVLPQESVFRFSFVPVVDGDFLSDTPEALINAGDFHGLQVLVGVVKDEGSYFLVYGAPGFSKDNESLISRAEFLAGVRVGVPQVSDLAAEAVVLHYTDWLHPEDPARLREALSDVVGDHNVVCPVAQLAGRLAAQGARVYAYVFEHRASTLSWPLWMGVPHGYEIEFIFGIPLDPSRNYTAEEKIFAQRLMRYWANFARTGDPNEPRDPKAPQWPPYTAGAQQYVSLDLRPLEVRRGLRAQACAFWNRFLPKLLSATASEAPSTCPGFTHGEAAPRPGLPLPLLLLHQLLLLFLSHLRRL
Source text: as §1, §2

[1] = ABTS radical cation scavenging assay; set-up: key to ABTS^•+ Scavenging Activity, TEAC: TEAC: ratio of compound slope to Trolox slope (Trolox equivalents); settings: 1 h incubation; for IC50: 50% reduction of ABTS radical cation; for ABTS^•+ Scavenging Activity, TEAC: Trolox equivalent, n.a. = not active
Method: In the ABTS assay, the dark-green ABTS cation-radical (ABTS^•+) is quenched by interaction with AOs. The consequent decrease in absorbance is followed spectrophotometrically per the previously described method.
Radical scavenging activity of the compounds was assessed using the ABTS radical cation (ABTS^•+) decolorization assay with some modifications. ABTS (2,2′-azinobis-(3-ethylbenzothiazoline-6-sulfonic acid) was purchased from Tokyo Chemical Industry Co., Ltd. (Tokyo, Japan); potassium persulfate (dipotassium peroxodisulfate), Trolox (6-hydroxy-2,5,7,8-tetramethylchroman-2-carboxylic acid), and HPLC-grade ethanol and DMSO were obtained from Sigma-Aldrich (Saint Louis, MO, USA). Aqueous solutions were prepared using deionized water. All tested compounds were dissolved in DMSO.
The solution of cation radical ABTS^•+ was produced by incubation of an aqueous solution of 7 mM ABTS and 2.45 mM potassium persulfate solution in equal quantities for 12–16 h at room temperature in the dark. Radical scavenging capacity of the compounds was analyzed by mixing 10 μL of compound with 240 μL of ABTS^•+ working solution in ethanol (100 μM final concentration). The reaction was monitored for an hour at 30 °C with an interval of 10 min. Data are given for 1 h of incubation of compounds with ABTS^•+. The reduction in absorbance was measured spectrophotometrically at 734 nm using an xMark microplate UV/VIS spectrophotometer (Bio-Rad, Hercules, CA, USA). Ethanol blanks were run in each assay. Values were obtained from five replicates of each sample and three independent experiments.
The standard AO Trolox was used as a reference compound. AO capacity as Trolox equivalent (TEAC) values was determined as the ratio between the slopes obtained from the linear correlation of the ABTS radical absorbance with the concentrations of tested compounds and Trolox. Ascorbic acid was used as a positive control. […]. The compounds were tested in the concentration range of 0.5–100 µM.

β-amyloid (1–42) (Aβ42) = β-amyloid (1–42) (Aβ42) (Homo sapiens, UniProt P05067); test: Inhibition of Aβ42 self-aggregation (thioflavin T); format: biochemical; settings: for inhibition at 100 µM: read-out: Inhibition of Aβ42 Self-Aggregation
Chain of β-amyloid (1–42) (Aβ42) (P05067 672-713 limits assumed): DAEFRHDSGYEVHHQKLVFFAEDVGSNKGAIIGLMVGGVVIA
Method: The inhibitory activity of tested hybrids against the self-aggregation of Aβ42 was determined in vitro using the thioflavin T (ThT) fluorimetric assay. According to [84], the ThT test is ideal for preliminary screening of inhibitors of Aβ42 self-aggregation, as it enables the quantitative testing of large numbers of compounds within a relatively short time.
The influence of the inhibitory effect of the test compounds toward Aβ42 self-aggregation was determined using the thioflavin T (ThT) fluorescence method with minor modifications. This assay is based on a specific interaction between the fluorescent dye thioflavin T that binds to the β-sheets of assembled amyloid fibrils leading to a significant increase in fluorescence signal. Therefore, the decrease in ThT fluorescence correlates with the ability of the studied compounds to inhibit the formation of amyloid aggregates.
One mg of lyophilized HFIP-pretreated Aβ42 from BACHEM (Bubendorf, Switzerland) was dissolved in DMSO to obtain a stable initial solution ([Aβ42] = 500 μM); then it was aliquoted and stored at −20 °C.
For the measurement of Aβ42 self-aggregation and amyloid fibril inhibition studies by the tested compounds, aliquots of 500 μM Aβ42 stock solution were diluted in 215 mM Na-phosphate buffer pH = 8.0 to a final concentration of 50 μM Aβ42. Then the samples were incubated for 24 h at 37 °C without stirring in the absence (base level of Aβ42 self-aggregation, control) or presence of the test compounds. Myricetin and propidium iodide were used as reference compounds (positive controls). All compounds were used in a concentration of 100 µM. To quantify Aβ42 fibril formation, after incubation, 5 μM ThT in 50 mM glycine-NaOH buffer pH 8.5 was added to the solutions to a final concentration of 4 μM ThT and the fluorescence was measured at 440 nm (excitation) and 485 nm (emission). Analyses were performed with a FLUOStar Optima microplate reader (LabTech, Ortenberg, Germany). The blanks consisted of 215 mM Na-phosphate buffer, pH = 8.0, 20% (v/v) DMSO or test compounds, respectively. Each assay was run in triplicate.

porcine liver CES = test: In vitro CES inhibition (4-NPA substrate); format: biochemical; settings: compound 20 µM, n.a. = not active
Source text: as §1, §2

EeAChE PAS = biological target: T3, EeAChE PAS (Electrophorus electricus, UniProt O42275); format: binding; settings: compound 20 µM; EeAChE 7 µM; propidium iodide 8 µM
T3 construct: The enzyme was electric eel AChE (EeAChE type VI-S, lyophilized powder, Sigma-Aldrich); purchased Sigma-Aldrich type VI-S; host or cells: electric eel (tissue-derived)
T3 sequence (O42275 24-633): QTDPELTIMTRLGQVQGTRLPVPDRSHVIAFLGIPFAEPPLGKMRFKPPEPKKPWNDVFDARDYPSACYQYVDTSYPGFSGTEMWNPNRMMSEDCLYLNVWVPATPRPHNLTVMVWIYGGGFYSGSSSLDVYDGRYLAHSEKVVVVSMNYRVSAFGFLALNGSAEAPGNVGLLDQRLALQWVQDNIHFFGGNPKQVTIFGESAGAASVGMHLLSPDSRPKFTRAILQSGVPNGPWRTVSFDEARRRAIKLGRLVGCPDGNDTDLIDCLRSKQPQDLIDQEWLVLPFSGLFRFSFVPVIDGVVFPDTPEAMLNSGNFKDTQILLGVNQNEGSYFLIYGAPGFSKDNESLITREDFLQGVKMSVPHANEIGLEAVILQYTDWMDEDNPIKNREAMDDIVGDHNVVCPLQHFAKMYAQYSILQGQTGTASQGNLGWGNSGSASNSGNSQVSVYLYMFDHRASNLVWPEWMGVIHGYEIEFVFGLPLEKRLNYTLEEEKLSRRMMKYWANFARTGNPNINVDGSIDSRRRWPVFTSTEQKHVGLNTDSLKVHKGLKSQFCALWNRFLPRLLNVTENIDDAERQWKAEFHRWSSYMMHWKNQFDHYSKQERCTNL
Source text: This method is widely used as a screening approach to assess the potential ability of compounds to block AChE-induced β-amyloid aggregation. This is because when the compounds bind to the AChE PAS, they prevent the binding of β-amyloid, thereby inhibiting its aggregation.
The enzyme was electric eel AChE (EeAChE type VI-S, lyophilized powder, Sigma-Aldrich). We selected this source of AChE for consistency with our other reports and because of the purity, specific activity, and lower cost compared to human AChE.
Propidium iodide (final concentration 8 μM) was then added for a further 15 min incubation, and the fluorescence spectrum was taken (530 nm excitation and 600 nm emission) using a FLUOStar Optima microplate reader. The same concentration of propidium iodide in the Tris buffer was used as the blank. Triplicate determinations were recorded and the results were calculated via the following equation:% Displacement = 100 − (IFAChE+ Propidium + inhibitor/IFAChE + Propidium) × 100, where IFAChE + Propidium = fluorescence intensity of propidium iodide associated with AChE in the absence of the test compound (taken as 100%), and IFAChE + Propidium + inhibitor = fluorescence intensity of propidium iodide associated with AChE in the presence of the test compound.

[2] = Aβ42 50 µM, compound 100 µM, 24 h, 37 °C, thioflavin T

SMILES | FRAP, TE (FRAP assay) | IC50 (equine serum BChE) | IC50 (human erythrocyte AChE) | IC50 [1] | ABTS^•+ Scavenging Activity, TEAC [1] | inhibition at 100 µM (β-amyloid (1–42) (Aβ42); [2]) | Inhibitory activity against CES, inhibition at 20 µM (porcine liver CES) | Propidium Displacement from EeAChE PAS (EeAChE PAS) | Inhibition of Aβ42 Self-Aggregation (β-amyloid (1–42) (Aβ42); [2]) | inhibition at 100 µM (β-amyloid (1–42) (Aβ42))
Oc1ccccc1C=NCCCCNc1c2c(nc3ccccc13)CCCC2 [10a, 2-[4-(1,2,3,4-Tetrahydroacridin-9-ylamino)butyliminomethyl]phenol] | 0.02 | 0.127 ± 0.006 µM | 0.743 ± 0.044 µM | 35.8 ± 1.9 µM | 0.42 ± 0.03 | 57.9 ± 4.6% | 20.8 ± 0.4% | 18.6 ± 1.6% | – | –
O=C1O[C@H]([C@@H](O)CO)C(O)=C1O [Ascorbic acid, reference compound] | 1.28 ± 0.11 | – | – | 22.6 ± 1.2 µM | 0.96 ± 0.03 | – | – | – | – | –
CC[N+](C)(CC)CCC[n+]1c(-c2ccccc2)c2cc(N)ccc2c2ccc(N)cc21.[I-].[I-] [Propidium iodide, reference compound] | – | – | – | – | – | – | – | – | 90.7 ± 7.1% | –
O=C(O)c1ccccc1O [Salicylic acid, reference compound] | 0.02 | 47.6 ± 3.2 µM | – | – | no antiradical activity | – | 8.9 ± 0.6% | – | – | 6.5 ± 1.2%
Cc1c(C)c2c(c(C)c1O)CCC(C)(C(=O)O)O2 (centres unmarked) [Trolox, 6-hydroxy-2,5,7,8-tetramethylchroman-2-carboxylic acid, reference compound] | 1.00 | – | – | 19.8 ± 0.8 µM | 1.00 | – | – | – | – | –
